How the values were obtained:
[1] = cited from earlier work; for Absorption before reaching the colon: oral administration, sulphapyridine and 5-ASA without the azo-bond
[2] = Serum levels of 5-ASA and N-acetyl-5-ASA after single oral dose in seven healthy volunteers; type: in vivo, healthy volunteers (human); conditions: 7 volunteers
Protocol: (§1) Each of the batches of coated granules were separately packed into size 00 hard gelatin capsules (LOK-CAP, Eli Lilly) in an amount of 400 mg granules per capsule. The capsules were then spray coated with […] per capsule of a coating solution of the following formula: […]
(§2) Seven healthy volunteers were then each given blind on three separate occasions a single dose consisting of (a) 8 tablets of enteric coated 500 mg sulphasalazine tablets, (b) 8 of the enteric coated capsules containing the 20% Eudragit coated 5-ASA granules, and (c) 8 of the enteric coated capsules containing the 25% Eudragit coated 5-ASA granules. The serum levels of 5-ASA and N-acetyl-5-ASA at various times following administration were measured together with the total urinary excretion of 5-ASA and N-acetyl-5-ASA. In each case the values are given to three significant figures with 0 representing less than 2 ng/ml. The following abbreviations are used:
Tmax =time for the maximum serum concentration in hours, median and interquartials ranges
Cmax =maximum serum concentration attained in ng/ml
Thalf =estimated biological half life of elimination
KE=estimated first order in elimination rate constant

[3] = Total urinary excretion of 5-ASA and N-acetyl-5-ASA after single oral dose in seven healthy volunteers; type: in vivo, healthy volunteers (human); conditions: 7 volunteers
Protocol: as §1
as §2, with “ng/ml.” for “ng/ml. The following abbreviations are used:”

| Compound | Pharmacologically active agent in treatment of colonic disease with SASP ([1]; Khan et al, The Lancet 1977) | Absorption before reaching the colon [1] | Thalf (estimated biological half life of elimination) of 5-ASA ([2]; 5-ASA) | Thalf (estimated biological half life of elimination) of N-Ac-5-ASA ([2]; N-Ac-5-ASA) | Mean urinary excretion of 5-ASA ([3]; 5-ASA) | Mean urinary excretion of N-Ac-5-ASA ([3]; N-Ac-5-ASA) |
| --- | --- | --- | --- | --- | --- | --- |
| Nc1ccc(O)c(C(=O)O)c1 [5-ASA, 5-amino-salicylic acid] | pharmacologically active agent | almost entirely absorbed from the small intestine before reaching the colon | – | – | – | – |
| O=C(O)c1cc(/N=N/c2ccc(S(=O)(=O)Nc3ccccn3)cc2)ccc1O [Sulphasalazine, Salicylazosulphapyridine] | – | only absorbed to a limited extent before reaching the colon | 19.4 ± 12.9 | 60.1 ± 50.1 | 0 ± 0 ng/mL | 170 ± 35 ng/mL |
| Nc1ccc(S(=O)(=O)Nc2ccccn2)cc1 [sulphapyridine] | – | almost entirely absorbed from the small intestine before reaching the colon | – | – | – | – |

From patent US5401512A, “Delayed release oral dosage forms for treatment of intestinal disorders” (priority 1991, dated 1995)
